Data as given in paper PMC4278898 (PLoS ONE, 2014).
Values joined by “and” are separate entries in the source; they are usually repeats but may differ in a detail not shown here. Equal entries are not always repeated. “Also recorded” adds a separate entry of the source. Where two headings read alike, the source gives them in different places.

Experiments:
[1] = system: TZM-bl, HeLa, PBMC, and H9 cells; assay: Cytotoxicity tests on TZM-bl, HeLa, PBMC and H9 cells (summary statements); type: cell-based, human; settings: positive control AZT 60 µM
Protocol: (§3) The in vitro cytotoxic effect of each of the flavonoids was determined by a resazurin fluorometric method (Cell Titer Blue Viability Assay, Promega Corp, Madison, WI), as described by O'Brien et al. [27]. TZM-bl and HeLa adherent cells were each separately seeded (1×10^5 cell/mL) into a 96 well plate (Greiner Bio-One North America, Inc Monroe, NC, USA). After 24 hours, their morphology was observed under an inverted microscope. The experimental natural compounds were then added to the cultured cells (n = 9) plates, and incubated for 24 hours. The cells were washed with pre-warmed PBS (Lonza Walkersville, Inc. Walkersville, MD) and the medium was replaced with medium pre-warmed to 37°C. Resazurin was added, and the cells were incubated for 3.5 hours. […] The cytotoxic effect of the three flavonoids on H9 and PBMC cells was determined using the same protocol.

HIV-1 BaL [2] = assay: Anti-HIV activity in infected TZM-bl cells (luciferase); type: cell-based; settings: for anti-HIV activity compared with the vehicle control (HIV-1 BaL, TZM-bl): concentration not stated (range 0.01–100 µM)
HeLa cells = assay: Cytotoxicity assay (resazurin fluorometric method), HeLa cells; type: cell-based, human
HIV-1 89.6 [3] = assay: Anti-HIV activity in H9 cells, HIV-1 89.6 (p24 ELISA); type: cell-based; settings: for inhibition of infection / anti-HIV activity, H9 cells, HIV-1 89.6: p24 ELISA, concentration not given
Protocol: (§1) HIV-1 infection of H9 cells was performed as described by Gurgo et al. as follows: H9 cells were seeded at 1×10^5 cell/mL into a 24 well plate. […] After 48 hours of incubation, the supernatant was collected and frozen at −80°C. ELISA was performed to detect p24, and the cytotoxicity assay was done using the resazurin fluorometric method, as described previously.
(§2) The HIV-1 p24 Antigen ELISA 2.0 Kit (ZeptoMetrix Corporation, Bufalo, NY) was used to monitor and determine the titer of HIV-1-based lentiviral samples, as described by Gonçalves et al.. For each sample (n = 9), a 225 µL volume was treated with 25 µL of lysing buffer. An ELISA array plate was washed three times with 300 µL/well of wash buffer in a microplate washer (MultiWash III, TriContinent, Grass Valley, CA), and 200 µL/well of each treated samples was transferred to the plate. The plate was incubated at 37°C for 3 hours, then washed six times, incubated for 1 hour with 100 µL/well of HIV-1 p24 detector antibody, washed six more times, and incubated 30 min at room temperature with 100 µL/well of substrate. The reaction was stopped by addition of stop solution (100 µL/well). The absorbance was determined using a microplate reader (SpectraMax M5, Molecular Devices, Sunnyvale, CA) at 450 nm, and the samples were calibrated against the HIV-1 p24 standard curve, generated from a series of standards loaded on the same plate.

PBMC cells = assay: Cytotoxicity assay (resazurin fluorometric method), PBMC cells; type: cell-based, human
HIV-1 MN [4] = assay: Anti-HIV activity in H9 cells, HIV-1 MN (p24 ELISA); type: cell-based; settings: for inhibition of infection / anti-HIV activity, H9 cells, HIV-1 MN: concentration not given
Protocol: as §1, §2

TZM-bl cells [5] = assay: Cytotoxicity assay (resazurin fluorometric method), TZM-bl cells; type: cell-based, human
[6] = Cytotoxicity tests on TZM-bl, HeLa, PBMC and H9 cells (summary statements); type: cell-based, human; settings: human, TZM-bl, HeLa, PBMC, H9; for viability at 24 h: at concentrations between 20 µM–60 µM, read-out: cell viability
Protocol: as §3

TZM-bl cells [7] = assay: Cell viability in the dual-chamber model (resazurin); settings: resazurin method
Protocol: The in vitro cytotoxic effect of each of the flavonoids was determined by a resazurin fluorometric method (Cell Titer Blue Viability Assay, Promega Corp, Madison, WI), as described by O'Brien et al. [27]. TZM-bl and HeLa adherent cells were each separately seeded (1×10^5 cell/mL) into a 96 well plate (Greiner Bio-One North America, Inc Monroe, NC, USA). After 24 hours, their morphology was observed under an inverted microscope. The experimental natural compounds were then added to the cultured cells (n = 9) plates, and incubated for 24 hours. The cells were washed with pre-warmed PBS (Lonza Walkersville, Inc. Walkersville, MD) and the medium was replaced with medium pre-warmed to 37°C. Resazurin was added, and the cells were incubated for 3.5 hours.
Transwell assay inserts with 8 µM diameter pores and 0.3 cm^2 of culture surface (Greiner Bio-One, Monroe, NC,) were positioned in the wells of a 24-well plate. Then 1×10^4 HeLa cells were seeded into each transwell insert/apical chamber (using DMEM with 10% FBS). […] To assess confluence, the Trans Epithelial Electric Resistance (TEER) (described by Arien et al. [33]) of each HeLa cell layer was measured with a Millicell-ERS Volt-Ohm Meter (Millipore, Bedford, MA) before and after flavonoids treatments. Cell layer confluence in the transwell inserts was measured daily, until the optimal TEER (>150 Ohm/cm^2) was reached on day 4. […]

HeLa cell layer = assay: Trans Epithelial Electric Resistance (TEER) of HeLa cell layer in dual-chamber model; settings: dual-chamber transwell insert
Protocol: (§4) Transwell assay inserts with 8 µM diameter pores and 0.3 cm^2 of culture surface (Greiner Bio-One, Monroe, NC,) were positioned in the wells of a 24-well plate. Then 1×10^4 HeLa cells were seeded into each transwell insert/apical chamber (using DMEM with 10% FBS). TZM-bl cells (1×10^5) were seeded into the basal chambers below the inserts, and the plates were incubated at 37°C in humid air containing 5% CO2. To assess confluence, the Trans Epithelial Electric Resistance (TEER) (described by Arien et al. [33]) of each HeLa cell layer was measured with a Millicell-ERS Volt-Ohm Meter (Millipore, Bedford, MA) before and after flavonoids treatments. Cell layer confluence in the transwell inserts was measured daily, until the optimal TEER (>150 Ohm/cm^2) was reached on day 4. On day 4, the media in the basal chamber and the insert was replaced with new pre-warmed media. […] The plate was incubated at 37°C, in humid air containing 5% CO2.

HIV-1 MN [8] = assay: Anti-HIV activity in PBMC, HIV-1 MN (p24 ELISA); type: cell-based; settings: for anti-HIV activity, PBMC cells, HIV-1 MN: concentration not given
H9 cells = assay: Cytotoxicity assay (resazurin fluorometric method), H9 cells; type: cell-based, human
HIV-1 89.6 [9] = assay: Anti-HIV activity in PBMC, HIV-1 89.6 (p24 ELISA); type: cell-based; settings: for anti-HIV activity, PBMC cells, HIV-1 89.6: p24 ELISA, concentration not given; for IC50: Human immunodeficiency virus 1, HIV-1 89.6, p24 ELISA
Protocol: The viability of the cells was assessed by the resazurin fluometric method as describe previously. After incubation, the supernatant from each well was collected and stored at -80°C for performance of p24 ELISA.
as §2

HIV-1 BaL [10] = assay: Microbicide activity in the dual-chamber model (HeLa apical, TZM-bl basal; luciferase); settings: Human immunodeficiency virus 1, BAL
Protocol: as §4
The experiments were performed in triplicate and repeated three different times.

[11] = Human immunodeficiency virus 1, H9
[12] = TZM-bl cells, 24 hours treatment, concentration that kills 50% of the cells
[13] = Human immunodeficiency virus 1, BAL, TZM-bl
[14] = Human immunodeficiency virus 1, H9 cells, HIV-1 89.6, p24 ELISA, read-out: IC50
[15] = Human immunodeficiency virus 1, H9 cells, HIV-1 MN, p24 ELISA, read-out: IC50
[16] = Human immunodeficiency virus 1, PBMC cells, HIV-1 MN, p24 ELISA, read-out: IC50

Structure (SMILES)	LD50 (HeLa cells; HeLa cells, 24 hours treatment) [µM]	LD50 (PBMC cells; PBMC cells) [µM]	LD50 (TZM-bl cells [5]; [12])	IC50 (HIV-1 BaL [2]; [13]) [µM]	LD50 (H9 cells; H9 cells) [µM]	anti-HIV activity, PBMC cells, HIV-1 89.6 (HIV-1 89.6 [9])	IC50 (HIV-1 89.6 [3]; [14]) [µM]	inhibition of infection / anti-HIV activity, H9 cells, HIV-1 89.6 (HIV-1 89.6 [3]) [%]	IC50 (HIV-1 MN [4]; [15]) [µM]	inhibition of infection / anti-HIV activity, H9 cells, HIV-1 MN (HIV-1 MN [4]; p24 ELISA) [%]	anti-HIV activity compared with the vehicle control (HIV-1 BaL, TZM-bl) (HIV-1 BaL [2]) [%]	IC50 (HIV-1 MN [8]; [16]) [µM]	anti-HIV activity, PBMC cells, HIV-1 MN (HIV-1 MN [8]; p24 ELISA) [%]	IC50 (HIV-1 89.6 [9]; PBMC cells) [µM]	further results
Cc1cn([C@H]2C[C@H](N=[N+]=[N-])[C@@H](CO)O2)c(=O)[nH]c1=O [AZT, Zidovudine, reference compound]															effect on cell growth [1]: did not affect the cell growth; inhibition at 60 µM (HIV-1 BaL [2]; Human immunodeficiency virus 1, BAL, TZM-bl, read-out: inhibition of HIV infection by positive control (HIV-1 BaL, TZM-bl)): ≥ 90%
O=c1c(O)c(-c2cc(O)c(O)c(O)c2)oc2cc(O)cc(O)c12 [Myricetin]	804.94	1159.26	1214.92 µM and 1214.72 µM	20.4	1059.09	more than 80%									anti-HIV activity greater than for Pinocembrin, HIV-1 89.6, H9 (HIV-1 89.6 [3]; H9 cells): 23.9 x; anti-HIV activity greater than for Quercetin, HIV-1 89.6, H9 (HIV-1 89.6 [3]; H9 cells): 16.9 x; IC50 (HIV-1 89.6 [3]; [11]): 1.76 µM; anti-HIV activity greater compared to Pinocembrin, HIV-1 MN, H9 (HIV-1 MN [4]; H9 cells): ~2.9 x; anti-HIV activity greater than that of Quercetin, HIV-1 MN, H9 (HIV-1 MN [4]; H9 cells): approximately 1.7 x; IC50 (HIV-1 MN [4]; [11]): 22.9 µM; viability at 24 h, 100 µM ([6]; PBMC and H9 cells, at 100 µM concentration, read-out: cell viability compared with the negative control (only cells)): ≥ 85%; cell viability in dual-chamber model versus negative control (only cells) (TZM-bl cells [7]): no statistically significant difference; also recorded: did not show a statistically significant difference on cell viability; TEER of HeLa cell layer before and after flavonoid treatment (HeLa cell layer): 208 Ohm/cm^2; inhibition at 100 µM (HIV-1 BaL [2]; Human immunodeficiency virus 1, BAL, TZM-bl, read-out: inhibition of HIV-1 BaL infection in TZM-bl cells): > 87%; IC50 (HIV-1 MN [8]; Human immunodeficiency virus 1, PBMC): 4.49 µM; inhibition at 100 µM (HIV-1 MN [8]; Human immunodeficiency virus 1, PBMC, read-out: inhibition of HIV-1 MN infection in PBMC cells): 86%; inhibition at 100 µM (HIV-1 89.6 [9]; Human immunodeficiency virus 1, PBMC, read-out: inhibition of HIV-1 89.6 infection in PBMC cells): 85%; x higher than Pinocembrin, HIV-1 89.6, PBMC (HIV-1 89.6 [9]; PBMC cells): 16.4 x; x higher than Quercetin, HIV-1 89.6, PBMC (HIV-1 89.6 [9]; PBMC cells): 12.3 x; IC50 (HIV-1 BaL [10]; read-out: IC50, HIV-1 BaL infection in dual-chamber system): 19.5 µM; inhibition at 100 µM (HIV-1 BaL [10]; read-out: inhibition of HIV-1 BaL infection in dual-chamber system): > 88%
O=C1C[C@@H](c2ccccc2)Oc2cc(O)cc(O)c21 [Pinocembrin]						51%	42.2	≥ 60	67.2	≥ 60	28	57.7	67	53.2	LD50 (HeLa cells; human, 24 h): 99.52 µM; LD50 (PBMC cells; human, 24 h): 788.23 µM; LD50 (TZM-bl cells [5]; human, 24 h): 67.94 µM; viability at 24 h ([6]; PBMC and H9 cells): ≥ 85%; IC50 (HIV-1 BaL [2]; Human immunodeficiency virus 1, TZM-bl cells, HIV-1 BaL, MOI = 1, read-out: IC50): 347 µM; LD50 (H9 cells; human, 24 h): 805.76 µM
O=c1c(O)c(-c2ccc(O)c(O)c2)oc2cc(O)cc(O)c12 [Quercetin]	78.20	813.57	119.23 µM	89	905.76	59%	29.8	≥ 64	38.8	≥ 64	39	31.7	45	39.3	viability at 24 h [6]: ≥ 85%
